Read-outs that look alike come from different tables or passages of the source.
Target: T1, REV-ERBα LBD (human; residues 281-614 Δ324-422) (Homo sapiens, UniProt P20393, DEL324-422)
T1 construct: 6×Histag-REV-ERBα LBD (human; residues 281-614 Δ324-422); made in house; host or cells: Escherichia coli
Experiment: TR-FRET corepressor interaction assay (REV-ERBα LBD, FITC-SMRT peptide)
Format: biochemical
Procedure: TR-FRET corepressor interaction assay. The time-resolved fluorescence resonance energy transfer (TR-FRET) assay was performed in black low-volume 384-well plates (Greiner). […] Ligand stocks were prepared via serial dilution in DMSO, added to wells in triplicate, and plates were incubated at 4° C. for 2 h and read using a BioTek Synergy Neo multimode plate reader. The Tb donor was excited at 340 nm; its fluorescence emission was monitored at 495 nm, and the acceptor FITC emission was measured at 520 nm; and the TR-FRET ratio was calculated as the signal at 520 nm divided by the signal at 495 nm. Data were plotted using GraphPad Prism as TR-FRET ratio vs. ligand concentration and fit to sigmoidal dose response curve equation.

[1] = Table 2, read-out: REVERBα agonism (EC50 class, FRET assay)

T1 sequence (P20393 with tags, fused parts or gaps DEL324-422): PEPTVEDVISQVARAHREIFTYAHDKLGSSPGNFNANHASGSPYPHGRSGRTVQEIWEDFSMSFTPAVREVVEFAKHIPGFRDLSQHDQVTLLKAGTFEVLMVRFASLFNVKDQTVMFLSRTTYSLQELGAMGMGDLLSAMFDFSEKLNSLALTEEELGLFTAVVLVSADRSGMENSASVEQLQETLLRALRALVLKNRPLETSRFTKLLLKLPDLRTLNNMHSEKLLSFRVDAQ
T1 sequence (Q9Y618 2335-2356 partner limits assumed): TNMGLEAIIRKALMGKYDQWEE

SMILES | EC50 [1] | EC50 (FITC-SMRT peptide, read-out: REVERBα agonism (EC50 class, FRET assay))
CC(C)(O)Cn1cc([C@H](NS(=O)(=O)C2CCC2)C(F)(F)F)c2ccc(-c3ccccc3C(F)(F)F)nc21 (racemic) [Example 412, N-[rac-(1S)-2,2,2-trifluoro-1-[1-(2-hydroxy-2-methyl-propyl)-6-[2-(trifluoromethyl)phenyl]pyrrolo[2,3-b]pyridin-3-yl]ethyl]cyclobutanesulfonamide] | 0.5 to 3 µM | 
CC(C)(C)Cn1cc([C@H](NS(=O)(=O)C2CCC2)C(F)(F)F)c2cc(F)c(-c3cccnc3C#N)cc21 (racemic) [Example 529, (S)—N-(1-(6-(2-cyanopyridin-3-yl)-5-fluoro-1-neopentyl-1H-indol-3-yl)-2,2,2-trifluoroethyl)cyclobutanesulfonamide] |  | < 0.5 µM
CC(C)Cn1cc(CCNS(C)(=O)=O)c2ccc(-c3ccncc3)cc21 [Compound 3] | 0.5 to 3 µM | 
CC(C)Cn1cc(CCN(C)S(=O)(=O)N(C)C)c2ccc(-c3ccncc3)cc21 [Compound 5] | < 0.5 µM | 
CCCn1cc(CCNS(=O)(=O)N(C)C)c2ccc(-c3ccncc3)cc21 [Compound 6] | < 0.5 µM | 
CN(C)S(=O)(=O)NCCc1cn(CC2CC2)c2cc(-c3ccncc3)ccc12 [Compound 7] | < 0.5 µM | 
CN(C)S(=O)(=O)NCCc1cn(Cc2ccccc2)c2cc(-c3ccncc3)ccc12 [Compound 8] | < 0.5 µM | 
CN(C)S(=O)(=O)NCCc1cn(CC2CCOC2)c2cc(-c3ccncc3)ccc12 (stereo not shown) [Compound 9] | 0.5 to 3 µM | 
COc1cc(-c2ccc3c(CCNS(=O)(=O)N(C)C)cn(CC(C)C)c3c2)ccn1 [Compound 19] | 0.5 to 3 µM | 
CN(C)S(=O)(=O)NCCc1c[nH]c2cc(-c3ccncc3)ccc12 [Compound 40, dimethyl({2-[6-(pyridin-4-yl)-1H-indol-3-yl]ethyl}sulfamoyl)amine] | > 3 µM | 
CC(=O)n1cc(CCNS(=O)(=O)N(C)C)c2ccc(-c3ccncc3)cc21 [Compound 42, 1-(3-{2-[(dimethylsulfamoyl)amino]ethyl}-6-(pyridin-4-yl)-1H-indol-1-yl)ethan-1-one] | > 3 µM | 
CC(C)C(=O)n1cc(CCNS(=O)(=O)N(C)C)c2ccc(-c3ccncc3)cc21 [Compound 43, 1-(3-{2-[(dimethylsulfamoyl)amino]ethyl}-6-(pyridin-4-yl)-1H-indol-1-yl)-2-methylpropan-1-one] | < 0.5 µM | 
CC(C)Cc1cn(C2CCN(S(=O)(=O)C(C)C)C2)c2ccc(-c3ccncc3)cc12 (stereo not shown) [Compound 44] | 0.5 to 3 µM | 
Cc1noc(C)c1-c1ccc2c(CCNS(=O)(=O)N(C)C)cn(CC(C)C)c2c1 [Compound 64, ({2-[6-(3,5-dimethyl-1,2-oxazol-4-yl)-1-(2-methylpropyl)-1H-indol-3-yl]ethyl}sulfamoyl)dimethylamine] | > 3 µM | 
CC(C)Cn1cc(CCNS(=O)(=O)N(C)C)c2ccc(-c3cnoc3)cc21 [Compound 65, dimethyl({2-[1-(2-methylpropyl)-6-(1,2-oxazol-4-yl)-1H-indol-3-yl]ethyl}sulfamoyl)amine] | 0.5 to 3 µM | 
CC(C)Cn1cc(CCNS(=O)(=O)N(C)C)c2ccc(-c3ccoc3)cc21 [Compound 66, ({2-[6-(furan-3-yl)-1-(2-methylpropyl)-1H-indol-3-yl]ethyl}sulfamoyl)dimethylamine] | < 0.5 µM | 
CC(C)Cn1cc(CCNS(=O)(=O)N(C)C)c2ccc(-c3ncco3)cc21 [Compound 67, dimethyl({2-[1-(2-methylpropyl)-6-(1,3-oxazol-2-yl)-1H-indol-3-yl]ethyl}sulfamoyl)amine] | 0.5 to 3 µM | 

SMILES | EC50 [1] | EC50 (FITC-SMRT peptide, read-out: REVERBα agonism (EC50 class, FRET assay))
CC(C)Cn1cc(CCNS(=O)(=O)N(C)C)c2ccc(Nc3ccnn3C)cc21 [Compound 69, 3-{2-[(dimethylsulfamoyl)amino]ethyl}-N-(1-methyl-1H-pyrazol-5-yl)-1-(2-methylpropyl)-1H-indol-6-amine] | > 3 µM | 
CC(C)Cn1cc(CCNS(=O)(=O)N(C)C)c2ccc(NC(=O)Cc3ccccc3)cc21 [Compound 70, N-(3-{2-[(dimethylsulfamoyl)amino]ethyl}-1-(2-methylpropyl)-1H-indol-6-yl)-2-phenylacetamide] | > 3 µM | 
CC(C)Cn1cc(CCNS(=O)(=O)N(C)C)c2ccc(NC(=O)c3ccccc3)cc21 [Compound 71] | > 3 µM | 
CC(C)Cn1cc(CCNS(=O)(=O)N(C)C)c2ccc(C#N)cc21 [Compound 96, 3-{2-[(dimethylsulfamoyl)amino]ethyl}-1-(2-methylpropyl)-1H-indole-6-carbonitrile] | < 0.5 µM | 
CC(C)Cn1cc(CCNS(=O)(=O)N(C)C)c2ccc(Br)cc21 [Compound 97, ({2-[6-bromo-1-(2-methylpropyl)-1H-indol-3-yl]ethyl}sulfamoyl)dimethylamine] | < 0.5 µM | 
CC(C)Cn1cc(CCNS(=O)(=O)N(C)C)c2ccc(C3CCN(C(=O)OC(C)(C)C)CC3)cc21 [Compound 101, tert-butyl 4-(3-{2-[(dimethylsulfamoyl)amino]ethyl}-1-(2-methylpropyl)-1H-indol-6-yl)piperidine-1-carboxylate] | 0.5 to 3 µM | 
CC(C)Cn1cc(CCNS(=O)(=O)N(C)C)c2ccc(C3CCNCC3)cc21 [Compound 102, dimethyl({2-[1-(2-methylpropyl)-6-(piperidin-4-yl)-1H-indol-3-yl]ethyl}sulfamoyl)amine] | > 3 µM | 
CC(=O)N1CCC(c2ccc3c(CCNS(=O)(=O)N(C)C)cn(CC(C)C)c3c2)CC1 [Compound 103, 1-[4-(3-{2-[(dimethylsulfamoyl)amino]ethyl}-1-(2-methylpropyl)-1H-indol-6-yl)piperidin-1-yl]ethan-1-one] | > 3 µM | 
CC(C)Cn1cc(CCN(C)S(=O)(=O)N(C)C)c2ccc(C#N)cc21 [Compound 122, 3-{2-[(dimethylsulfamoyl)(methyl)amino]ethyl}-1-(2-methylpropyl)-1H-indole-6-carbonitrile] | > 3 µM | 
CC(C)Cn1cc(CCN(C)S(=O)(=O)N(C)C)c2ccc(Br)cc21 [Compound 123, ({2-[6-bromo-1-(2-methylpropyl)-1H-indol-3-yl]ethyl}(methyl)sulfamoyl)dimethylamine] | 0.5 to 3 µM | 
CC(C)CC(=O)n1cc(CCNS(=O)(=O)N(C)C)c2ccc(-c3ccncc3)cc21 [Compound 155, 1-(3-{2-[(dimethylsulfamoyl)amino]ethyl}-6-(pyridin-4-yl)-1H-indol-1-yl)-3-methylbutan-1-one] | 0.5 to 3 µM | 
CN(C)S(=O)(=O)NCCc1cn(C(=O)C(C)(C)C)c2cc(-c3ccncc3)ccc12 [Compound 156, 1-(3-{2-[(dimethylsulfamoyl)amino]ethyl}-6-(pyridin-4-yl)-1H-indol-1-yl)-2,2dimethylpropan-1-one] | > 3 µM | 
CCn1cc(CCNS(=O)(=O)N(C)C)c2ccc(Br)cc21 [Compound 157, {[2-(6-bromo-1-ethyl-1H-indol-3-yl)ethyl]sulfamoyl}dimethylamine] | 0.5 to 3 µM | 
CC(C)Cn1cc(CCNS(=O)(=O)N(C)C)c2ccc(-c3ccncc3C(F)(F)F)cc21 [Compound 206, dimethyl({2-[1-(2-methylpropyl)-6-[3-(trifluoromethyl)pyridin-4-yl]-1H-indol-3-yl]ethyl}sulfamoyl)amine] | < 0.5 µM | 
COc1ccc2cc(-c3ccc4c(c3)c(CC(C)(C)C)cn4CCNS(=O)(=O)C3CC3)ccc2c1 [Compound 220] | > 3 µM | 
CC(C)(C)Cc1cn(CCNS(=O)(=O)C2CC2)c2ccc(-c3ccc(F)c(F)c3)cc12 [Compound 226] | 0.5 to 3 µM | 
CC(C)Cn1cc(CCNS(=O)(=O)N(C)C)c2cc(-c3ccncc3)ccc21 [Compound 232] | > 3 µM | 

Reference: patent publication US20230339886A1 (University of Florida Research Foundation, Incorporated, priority 2020, published 2023)
